Measurements reported in ChEMBL document CHEMBL4706752 (ACS Med Chem Lett, 2021).

How the values were obtained:
[1] = target: T1, Nuclear receptor ROR-beta (Homo sapiens, UniProt Q92753); experiment: Inhibition of RORbeta (unknown origin)
T1 sequence (Q92753 whole entry): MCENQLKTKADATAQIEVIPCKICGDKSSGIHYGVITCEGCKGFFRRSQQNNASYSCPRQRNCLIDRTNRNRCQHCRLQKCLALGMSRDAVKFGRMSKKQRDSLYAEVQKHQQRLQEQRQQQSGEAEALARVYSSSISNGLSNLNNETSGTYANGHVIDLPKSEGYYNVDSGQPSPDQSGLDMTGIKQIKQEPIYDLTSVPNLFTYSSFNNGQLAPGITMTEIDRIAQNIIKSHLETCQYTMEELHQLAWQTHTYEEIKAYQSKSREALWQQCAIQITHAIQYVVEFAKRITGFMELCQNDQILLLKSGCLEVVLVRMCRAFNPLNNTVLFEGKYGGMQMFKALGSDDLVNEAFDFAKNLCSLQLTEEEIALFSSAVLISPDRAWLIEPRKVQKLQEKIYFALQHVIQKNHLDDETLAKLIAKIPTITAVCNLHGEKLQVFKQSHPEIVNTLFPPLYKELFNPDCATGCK

[2] = Decrease in IL-6 gene expression in C57BL/6 mouse model of IL-23 induced acanthosis model of psoriasis at 20 mg/kg, po BID for 10 days by RT-PCR analysis; assay type: functional; conditions: C57BL/6, po, 240 h, time 10 day
[3] = target: T2, Oxysterols receptor LXR-alpha (Homo sapiens, UniProt Q13133); experiment: Inhibition of LXRalpha (unknown origin)
T2 sequence (Q13133 whole entry): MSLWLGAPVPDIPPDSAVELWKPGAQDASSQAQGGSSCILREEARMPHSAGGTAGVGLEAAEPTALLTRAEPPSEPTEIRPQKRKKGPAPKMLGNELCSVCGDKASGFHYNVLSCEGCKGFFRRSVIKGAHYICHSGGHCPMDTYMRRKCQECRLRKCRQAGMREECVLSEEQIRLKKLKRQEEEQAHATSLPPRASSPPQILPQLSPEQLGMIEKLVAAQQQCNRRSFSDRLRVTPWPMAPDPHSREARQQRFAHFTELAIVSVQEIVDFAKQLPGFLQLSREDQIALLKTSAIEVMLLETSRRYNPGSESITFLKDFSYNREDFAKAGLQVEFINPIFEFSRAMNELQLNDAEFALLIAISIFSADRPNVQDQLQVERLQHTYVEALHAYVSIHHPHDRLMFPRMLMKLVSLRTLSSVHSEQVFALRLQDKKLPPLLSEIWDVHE

[4] = Half life in dog at 1 mg/kg, iv; assay type: ADME, organism-based, Canis lupus familiaris; conditions: in vivo
[5] = AUC in Sprague-Dawley rat at 4 mg/kg, po; assay type: ADME, organism-based; design: dose 4 mg/kg; conditions: in vivo
[6] = Tmax in cynomolgus monkey at 2 mg/kg, po; assay type: ADME, organism-based, Macaca fascicularis; conditions: in vivo
[7] = AUC in cynomolgus monkey at 2 mg/kg, po; assay type: ADME, organism-based, Macaca fascicularis; design: dose 2 mg/kg; conditions: in vivo
[8] = Clearance in dog at 1 mg/kg, iv; assay type: ADME, organism-based, Canis lupus familiaris; conditions: in vivo
[9] = AUC in Balb/c mouse at 4 mg/kg, po; assay type: ADME, organism-based; design: dose 4 mg/kg; conditions: in vivo
Mus musculus [10] = experiment: Antiinflammatory activity in DBA/1J mouse model of collagen-induced arthritis assessed as reduction in histological score at 5 mg/kg, po dosed twice daily for 21 days; assay type: functional; conditions: 504 h, time 21 day
[11] = Protein binding in mouse serum assessed as fraction unbound; assay type: ADME, cell-free; conditions: read-out: PB
[12] = Tmax in Balb/c mouse at 4 mg/kg, po; assay type: ADME, organism-based; conditions: in vivo
[13] = Metabolic stability in human liver microsomes assessed as compound remaining after 10 mins; assay type: ADME, Microsome; conditions: read-out: Stabilty
[14] = Oral bioavailability in Sprague-Dawley rat at 4 mg/kg; assay type: ADME, organism-based; conditions: in vivo
[15] = AUC in dog at 1 mg/kg, iv; assay type: ADME, organism-based, Canis lupus familiaris; design: dose 1 mg/kg; conditions: in vivo
Mus musculus [16] = experiment: Suppression of ear thickness in C57BL/6 mouse model of IL-23 induced acanthosis model of psoriasis assessed as AUC of %change in ear thickness at 5 mg/kg, po BID for 10 days measured every other day; assay type: functional; conditions: time 10 day
Mus musculus [17] = experiment: Suppression of ear thickness in C57BL/6 mouse model of IL-23 induced acanthosis model of psoriasis assessed as AUC of %change in ear thickness at 10 mg/kg, po BID for 10 days measured every other day; assay type: functional; conditions: time 10 day
Mus musculus [18] = experiment: Antiinflammatory activity in DBA/1J mouse model of collagen-induced arthritis assessed as reduction in plasma IL-6 level at 20 mg/kg, po dosed twice daily for 21 days (reference value: 80 +/- 6 pg/ml); assay type: functional; conditions: time 21 day
[19] = AUC in cynomolgus monkey at 1 mg/kg, iv; assay type: ADME, organism-based, Macaca fascicularis; design: dose 1 mg/kg; conditions: in vivo
Mus musculus [20] = experiment: Antiinflammatory activity in DBA/1J mouse model of collagen-induced arthritis assessed as reduction in plasma IL-6 level at 10 mg/kg, po dosed twice daily for 21 days (reference value: 80 +/- 6 pg/ml); assay type: functional; conditions: time 21 day
[21] = Oral bioavailability in Balb/c mouse at 4 mg/kg; assay type: ADME, organism-based; conditions: in vivo
[22] = Decrease in IL-17a gene expression in C57BL/6 mouse model of IL-23 induced acanthosis model of psoriasis at 10 mg/kg, po BID for 10 days by RT-PCR analysis; assay type: functional; conditions: C57BL/6, po, 240 h, time 10 day
Cytochrome P450 2C19 = Cytochrome P450 2C19 (Homo sapiens, UniProt P33261); experiment: Inhibition of CYP2C19 (unknown origin); assay type: ADME
Cytochrome P450 2C19, sequence (P33261 whole entry): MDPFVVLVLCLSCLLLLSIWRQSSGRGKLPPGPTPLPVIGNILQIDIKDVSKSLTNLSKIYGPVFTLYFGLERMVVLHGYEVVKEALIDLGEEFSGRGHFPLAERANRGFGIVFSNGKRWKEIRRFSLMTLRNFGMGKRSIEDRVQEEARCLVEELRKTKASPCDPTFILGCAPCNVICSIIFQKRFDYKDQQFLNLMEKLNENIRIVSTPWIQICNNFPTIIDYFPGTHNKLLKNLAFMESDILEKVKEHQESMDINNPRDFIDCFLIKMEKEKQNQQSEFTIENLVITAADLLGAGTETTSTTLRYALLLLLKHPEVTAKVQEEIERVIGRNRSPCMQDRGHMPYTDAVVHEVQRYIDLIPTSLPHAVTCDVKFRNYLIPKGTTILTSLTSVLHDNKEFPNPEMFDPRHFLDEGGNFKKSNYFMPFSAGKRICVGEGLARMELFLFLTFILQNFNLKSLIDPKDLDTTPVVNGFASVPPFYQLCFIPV

Cytochrome P450 3A4 = Cytochrome P450 3A4 (Homo sapiens, UniProt P08684); experiment: Inhibition of CYP3A4 (unknown origin); assay type: ADME
Cytochrome P450 3A4, sequence (P08684 whole entry): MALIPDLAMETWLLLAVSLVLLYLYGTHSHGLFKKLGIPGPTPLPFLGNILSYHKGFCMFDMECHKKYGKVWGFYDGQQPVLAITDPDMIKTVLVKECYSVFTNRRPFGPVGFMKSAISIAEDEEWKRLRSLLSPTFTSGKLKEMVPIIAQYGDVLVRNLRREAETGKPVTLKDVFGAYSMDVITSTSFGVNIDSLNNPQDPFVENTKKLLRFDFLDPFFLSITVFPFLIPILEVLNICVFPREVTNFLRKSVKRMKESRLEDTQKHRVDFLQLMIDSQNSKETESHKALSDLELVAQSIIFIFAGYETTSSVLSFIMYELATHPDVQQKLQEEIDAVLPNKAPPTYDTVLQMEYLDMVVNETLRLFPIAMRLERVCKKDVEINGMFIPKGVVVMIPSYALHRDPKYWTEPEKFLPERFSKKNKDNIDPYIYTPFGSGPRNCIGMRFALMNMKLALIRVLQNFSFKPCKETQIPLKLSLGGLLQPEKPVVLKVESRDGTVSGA

[23] = Unbound volume of distribution at steady state in cynomolgus monkey at 1 mg/kg, iv; assay type: ADME, organism-based, Macaca fascicularis; conditions: in vivo
[24] = Half life in Sprague-Dawley rat at 2 mg/kg, iv; assay type: ADME, organism-based; conditions: in vivo
[25] = Decrease in IL-17a gene expression in C57BL/6 mouse model of IL-23 induced acanthosis model of psoriasis at 20 mg/kg, po BID for 10 days by RT-PCR analysis; assay type: functional; conditions: C57BL/6, po, 240 h, time 10 day
[26] = Clearance in cynomolgus monkey at 1 mg/kg, iv; assay type: ADME, organism-based, Macaca fascicularis; conditions: in vivo
[27] = Decrease in IL-6 gene expression in C57BL/6 mouse model of IL-23 induced acanthosis model of psoriasis at 10 mg/kg, po BID for 10 days by RT-PCR analysis; assay type: functional; conditions: C57BL/6, po, 240 h, time 10 day
Mus musculus [28] = experiment: Antiinflammatory activity in DBA/1J mouse model of collagen-induced arthritis assessed as reduction in histological score at 10 mg/kg, po dosed twice daily for 21 days; assay type: functional; conditions: 504 h, time 21 day
Cytochrome P450 2C9 = Cytochrome P450 2C9 (Homo sapiens, UniProt P11712); experiment: Inhibition of CYP2C9 (unknown origin); assay type: ADME
Cytochrome P450 2C9, sequence (P11712 whole entry): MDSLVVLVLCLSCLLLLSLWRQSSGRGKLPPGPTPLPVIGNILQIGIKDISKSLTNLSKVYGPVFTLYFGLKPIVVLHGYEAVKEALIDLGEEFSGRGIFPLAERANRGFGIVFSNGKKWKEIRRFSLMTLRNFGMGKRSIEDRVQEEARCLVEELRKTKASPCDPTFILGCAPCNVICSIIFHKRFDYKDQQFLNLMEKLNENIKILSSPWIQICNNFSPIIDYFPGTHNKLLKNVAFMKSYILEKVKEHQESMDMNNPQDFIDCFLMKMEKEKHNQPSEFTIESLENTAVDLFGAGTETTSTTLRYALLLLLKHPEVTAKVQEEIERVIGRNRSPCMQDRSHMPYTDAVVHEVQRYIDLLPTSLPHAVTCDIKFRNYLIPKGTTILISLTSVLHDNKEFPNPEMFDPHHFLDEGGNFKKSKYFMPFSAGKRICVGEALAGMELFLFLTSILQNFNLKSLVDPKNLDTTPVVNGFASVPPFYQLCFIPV

[29] = Tmax in Sprague-Dawley rat at 4 mg/kg, po; assay type: ADME, organism-based; conditions: in vivo
Mus musculus [30] = experiment: Antiinflammatory activity in DBA/1J mouse model of collagen-induced arthritis assessed as reduction in clinical score at 10 mg/kg, po dosed twice daily for 21 days measured on day 51; assay type: functional; conditions: 504 h, time 21 day
[31] = Oral bioavailability in cynomolgus monkey at 2 mg/kg; assay type: ADME, organism-based, Macaca fascicularis; conditions: in vivo
Mus musculus [32] = experiment: Antiinflammatory activity in DBA/1J mouse model of collagen-induced arthritis assessed as reduction in clinical score at 5 mg/kg, po dosed twice daily for 21 days measured on day 51; assay type: functional; conditions: 504 h, time 21 day

EC50 [1]: > 10 µM | EC50 [3]: > 10 µM | half-life [4]: 67 h | AUC [5]: 44.9 µM·h | Tmax [6]: 7 h | AUC [7]: 13.2 µM·h | clearance [8]: 0.22 mL/min/kg | AUC [9]: 45.9 µM·h | fraction unbound [11]: 0.015 | Tmax [12]: 2 h | remaining at 10 min [13]: 89% | bioavailability [14]: 85% | AUC [15]: 114 µM·h | AUC [19]: 9 µM·h | bioavailability [21]: 101% | IC50 (Cytochrome P450 2C19): 19 µM | IC50 (Cytochrome P450 3A4): > 20 µM | fVdss [23]: 2.7 L/kg | half-life [24]: 13 h | clearance [26]: 2.8 mL/min/kg | IC50 (Cytochrome P450 2C9): > 20 µM | Tmax [29]: 4 h | bioavailability [31]: 73%
Compound: C[C@@](O)(CS(C)(=O)=O)C(=O)N[C@@H]1CC[C@@]2(S(=O)(=O)c3ccc(F)cc3)c3ccc(C(F)(C(F)(F)F)C(F)(F)F)nc3CC[C@@H]12
inhibition in vivo at 20 mg/kg [2]: 77.4% | inhibition in vivo at 5 mg/kg (Mus musculus [10]): 59% | Activity (Mus musculus [16]): 34.4% | Activity (Mus musculus [17]): 66.5% | Activity (Mus musculus [18]): 19 pg/mL | Activity (Mus musculus [20]): 19 pg/mL | inhibition in vivo at 10 mg/kg [22]: 73.8% | inhibition in vivo at 20 mg/kg [25]: 87.7% | inhibition in vivo at 10 mg/kg [27]: 82.3% | inhibition in vivo at 10 mg/kg (Mus musculus [28]): 60% | inhibition in vivo at 10 mg/kg (Mus musculus [30]): 64% | inhibition in vivo at 5 mg/kg (Mus musculus [32]): 48%
